Experimental data: patent publication EP0590998A1, “1-Styryl-3-t-butyl-1,3-propanedione derivative and external preparation for skin using the same” (SHISEIDO COMPANY LIMITED, priority 1992, dated 1994)

Experiments:
[1] = Solubility of the 10% compounds in silicone base and squalane at room temperature; assay type: physicochemical; parameters: key: The compounds which can completely be dissolved in the solvents are indicated as ○; settings: room temperature (25°C); for SOLUBILITY SILICONE KF56(10%): 10% compound in SILICONE KF56 (10cs); for SOLUBILITY SQUALANE(10%): 10% compound in squalane
Excerpt: Solubilities of the following compounds 1 to 5 as examples of the 1-styryl-3-t-butyl-1,3-propanedione derivative and 2-hydroxy-4-methoxybenzophenone as a comparison are examined using the SILICONE KF56 (10cs; SHINETHU KACAKU INC.) as silicone base and squalane. Compound 1 : 1-styryl-3-t-butyl 1,3-propanedione Compound 2 : 1-p-methoxystyryl-3-t-butyl 1,3-propanedione Compound 3 : 1-p-(2-ethylhexyloxy)styryl-3-t-butyl 1,3-propanedione Compound 4 : 1-p-ethylstyryl-3-t-butyl1,3-propanedione compound 5 : 1-m-methylstyryl-3-t-butyl1,3-propanedione
The compounds which can completely be dissolved in the solvents are indicated as ○.

[2] = Ultraviolet ray absorption, spectrophotometer, 10ppm in ethanol; assay type: physicochemical; parameters: key: absorbance of 10 ppm ethanol solution, 10 mm quartz cell; settings: 10ppm in ethanol (99.5%), quartz cell 10mm×10mm
Protocol: Ultraviolet ray absorptivities of the compound 1,3,5 and comparison (2-hydroxy-4-methoxybenzophenone; UV-A absorbent) were measured according to the following method.
The compound 1,3,5 and the comparison compound were dissolved in ethanol (99.5%) so as to the concentration being 10ppm, and absorption were measured by using quartz cell (10mm×10mm) and the spectrophotometer UVIDEC-610 (JASCO CORPORATION).

Row | Compound | SOLUBILITY SILICONE KF56(10%) [1] | SOLUBILITY SQUALANE(10%) [1] | absorption ([2]; WAVELENGTH 300) | absorption ([2]; WAVELENGTH 310) | absorption ([2]; WAVELENGTH 320) | absorption ([2]; WAVELENGTH 330) | absorption ([2]; WAVELENGTH 340) | absorption ([2]; WAVELENGTH 350) | absorption ([2]; WAVELENGTH 360) | absorption ([2]; WAVELENGTH 370) | absorption ([2]; WAVELENGTH 380)
1 | CCc1ccc(C=CC(=O)CC(=O)C(C)(C)C)cc1 [Compound 4, 1-p-ethylstyryl-3-t-butyl1,3-propanedione] | ○ | ○ |  |  |  |  |  |  |  |  | 
2 | Cc1cccc(C=CC(=O)CC(=O)C(C)(C)C)c1 [Compound 5, 1-m-methylstyryl-3-t-butyl1,3-propanedione] | ○ | ○ | 0.50 | 0.72 | 1.00 | 1.26 | 1.36 | 1.24 | 0.98 | 0.54 | 0.32

Results, then the molecule that gave them:

Row | SOLUBILITY SILICONE KF56(10%) [1] | SOLUBILITY SQUALANE(10%) [1] | absorption ([2]; WAVELENGTH 300) | absorption ([2]; WAVELENGTH 310) | absorption ([2]; WAVELENGTH 320) | absorption ([2]; WAVELENGTH 330) | absorption ([2]; WAVELENGTH 340) | absorption ([2]; WAVELENGTH 350) | absorption ([2]; WAVELENGTH 360) | absorption ([2]; WAVELENGTH 370) | absorption ([2]; WAVELENGTH 380) | Compound
3 | DEPOSITION | DEPOSITION |  |  |  |  |  |  |  |  |  | COc1ccc(C(=O)c2ccccc2)c(O)c1 [COMPARISON 1, 2-hydroxy-4-methoxybenzophenone, reference compound]
4 | ○ | ○ | 0.60 | 0.82 | 1.08 | 1.33 | 1.40 | 1.24 | 0.96 | 0.50 | 0.26 | CC(C)(C)C(=O)CC(=O)C=Cc1ccccc1 [Compound 1, 1-styryl-3-t-butyl 1,3-propanedione]
5 | ○ | ○ |  |  |  |  |  |  |  |  |  | COc1ccc(C=CC(=O)CC(=O)C(C)(C)C)cc1 [Compound 2, 1-p-methoxystyryl-3-t-butyl 1,3-propanedione]
6 | ○ | ○ | 0.20 | 0.28 | 0.40 | 0.56 | 0.76 | 0.92 | 0.97 | 0.89 | 0.65 | CCCCC(CC)COc1ccc(C=CC(=O)CC(=O)C(C)(C)C)cc1 (stereo not drawn) [Compound 3, 1-p-(2-ethylhexyloxy)styryl-3-t-butyl 1,3-propanedione]
